Paper PMC9434606 (RSC Advances, 2022)

The molecules below were run against T1, pancreatic lipase (Sus scrofa, UniProt P00591) (assay: pancreatic lipase inhibition assay).
T1 sequence (P00591 1-450): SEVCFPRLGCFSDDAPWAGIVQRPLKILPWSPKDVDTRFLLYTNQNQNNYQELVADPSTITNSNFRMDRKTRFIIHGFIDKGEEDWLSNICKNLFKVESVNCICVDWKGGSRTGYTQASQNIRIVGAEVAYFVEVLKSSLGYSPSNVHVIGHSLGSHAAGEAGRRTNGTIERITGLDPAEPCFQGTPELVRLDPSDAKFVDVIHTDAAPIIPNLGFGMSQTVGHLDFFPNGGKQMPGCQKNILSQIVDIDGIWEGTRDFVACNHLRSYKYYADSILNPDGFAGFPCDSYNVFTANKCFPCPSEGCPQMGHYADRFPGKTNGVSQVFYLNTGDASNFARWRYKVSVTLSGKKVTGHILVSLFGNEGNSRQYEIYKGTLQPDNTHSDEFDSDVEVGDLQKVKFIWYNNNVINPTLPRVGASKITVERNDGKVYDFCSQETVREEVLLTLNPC
Type: biochemical

Row | Structure (SMILES) | IC50 [µM]
1 | COc1cc(O)c2c(c1)C1(OC2=O)C(C)=CC(=O)C1O (stereo not drawn) [Compound 1, talaroflavone] | 73.8 ± 0.82
2 | COc1cc(O)c(C(=O)O)c(-c2cc(O)c(O)cc2C)c1 [Compound 4, altenusin] | 21.5 ± 0.97
3 | Cc1cc(O)cc2oc(=O)c3c(O)cc(O)cc3c12 [Compound 5, alternariol] | 56.8 ± 0.77
